According to patent US11541050B2, “Pyrimidine derivatives for the treatment of viral infections” (JANSSEN SCIENCES IRELAND UC, priority 2011, dated 2023):

biological target: T1, human TLR8 (wild type sequence) (Homo sapiens, UniProt Q9NR97); assay: TLR8 cellular NFκB-luc reporter assay, wild type TLR8; format: cell-based; set-up: unit not given here; settings: lowest effective concentration, wild type TLR8 (compounds 74 onward)
T1 construct: expressed in transfected cells; host or cells: HEK293
T1 sequence (Q9NR97 27-1041): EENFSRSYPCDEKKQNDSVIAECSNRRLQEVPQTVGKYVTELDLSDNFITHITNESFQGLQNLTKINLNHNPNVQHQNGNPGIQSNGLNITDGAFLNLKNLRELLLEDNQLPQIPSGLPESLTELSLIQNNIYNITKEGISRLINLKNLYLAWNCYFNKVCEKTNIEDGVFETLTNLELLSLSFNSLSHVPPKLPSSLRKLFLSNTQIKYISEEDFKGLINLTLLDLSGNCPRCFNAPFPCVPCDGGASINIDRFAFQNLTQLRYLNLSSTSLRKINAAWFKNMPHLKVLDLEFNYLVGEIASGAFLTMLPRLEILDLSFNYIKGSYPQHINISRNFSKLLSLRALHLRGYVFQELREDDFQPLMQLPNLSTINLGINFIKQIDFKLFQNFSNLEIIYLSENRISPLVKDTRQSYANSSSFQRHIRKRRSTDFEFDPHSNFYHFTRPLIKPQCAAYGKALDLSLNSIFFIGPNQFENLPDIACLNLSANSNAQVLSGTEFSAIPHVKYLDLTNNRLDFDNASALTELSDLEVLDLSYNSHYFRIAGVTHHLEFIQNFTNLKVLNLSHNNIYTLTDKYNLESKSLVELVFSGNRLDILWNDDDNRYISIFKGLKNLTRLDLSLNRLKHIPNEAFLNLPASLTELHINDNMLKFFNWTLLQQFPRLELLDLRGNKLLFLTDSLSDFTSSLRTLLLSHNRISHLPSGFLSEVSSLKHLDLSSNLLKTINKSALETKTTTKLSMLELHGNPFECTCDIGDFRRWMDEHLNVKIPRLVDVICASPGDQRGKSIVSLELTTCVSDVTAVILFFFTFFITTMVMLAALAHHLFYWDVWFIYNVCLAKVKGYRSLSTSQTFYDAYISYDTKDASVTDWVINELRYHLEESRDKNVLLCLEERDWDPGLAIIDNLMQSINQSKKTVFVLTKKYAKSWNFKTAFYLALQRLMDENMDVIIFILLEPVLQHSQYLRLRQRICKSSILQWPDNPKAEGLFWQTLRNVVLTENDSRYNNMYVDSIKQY
How it was run: (§1)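 HEK293 cells transiently co-transfected (48 h, 37 °C) with CMV-TLR7 or TLR8 plasmid (wild type or second-LRR deletion mutant) plus NFκB-luc reporter. Cells exposed to compound for 6 h at 37 °C, 5% CO2; luciferase read-out. LEC from quadruplicate dose-response curves: concentration giving effect at least two fold above assay standard deviation.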

Structure (SMILES)	TLR 8 wt LEC
CCC[C@H](CCO)Nc1nc(N)ncc1OCc1ccccc1 [Compound 190]	4.330
CCC[C@@H](CO)Nc1nc(N)ncc1OCc1ccc2ccccc2n1 [Compound 192]	0.220
CCCC[C@@H](CO)Nc1nc(N)ncc1OCc1ncc(C)c(OC)c1C [Compound 194]	0.164
CCC[C@@H](CO)Nc1nc(N)ncc1OCc1nccc2ccccc12 [Compound 195]	0.056

system: human TLR7 mutant sequence comprising a deletion in the second leucine-rich repeat; assay: TLR7 cellular NFκB-luc reporter assay, mutant TLR7 with deletion in the second leucine-rich repeat; format: cell-based; set-up: unit not given here; settings: lowest effective concentration
Method: (§2) The ability of compounds to activate human TLR7 and/or TLR8 was assessed in a cellular reporter assay using HEK293 cells transiently transfected with a TLR7 or TLR8 expression vector and NFκB-luc reporter construct. In one instance the TLR expression construct expresses the respective wild type sequence or a mutant sequence comprising a deletion in the second leucine-rich repeat of the TLR.
(§3) Briefly, HEK293 cells were grown in culture medium (DMEM supplemented with 10% FCS and 2 mM Glutamine). For transfection of cells in 10 cm dishes, cells were detached with Trypsin-EDTA, transfected with a mix of CMV-TLR7 or TLR8 plasmid (750 ng), NFκB-luc plasmid (375 ng) and a transfection reagent and incubated for 48 hours at 37° C. in a humidified 5% CO2 atmosphere. […] Thirty microliters of cells were then dispensed into each well in 384-well plates, where 10 μL of compound in 4% DMSO was already present. Following 6 hours incubation at 37° C., 5% CO2, the luciferase activity was determined by adding 15 μl of Steady Lite Plus substrate (Perkin Elmer) to each well and readout performed on a ViewLux ultraHTS microplate imager (Perkin Elmer). Dose response curves were generated from measurements performed in quadruplicates.

Structure (SMILES)	TLR7-dIRR2_LEC
CCCC[C@@H](CCO)Nc1nc(N)ncc1OCc1nccc2ccccc12 [Compound 208]	0.093
CCCCNc1nc(N)ncc1OCc1ncccc1F [Compound 213]	0.207
CCC[C@@H](CO)Nc1nc(N)ncc1OCc1nccc(OC)c1OC [Compound 214]	0.593
CCC[C@@H](CO)Nc1nc(N)ncc1OCc1cn2ccccc2n1 [Compound 215]	0.300
CCCC[C@@H](CO)Nc1nc(N)ncc1OCc1nccc2ccccc12 [Compound 216]	0.111
CCCC[C@@H](CO)Nc1nc(N)ncc1OCc1nccc(OC)c1OC [Compound 217]	0.433
CCCC[C@@H](CO)Nc1nc(N)ncc1OCc1cn2ccccc2n1 [Compound 218]	0.352
CCC[C@@H](C)Nc1nc(N)ncc1OCc1nccc2ccccc12 [Compound 219]	1.640
CCCCNc1nc(N)ncc1OCCCC(=O)OC [Compound 220]	1.450
CCCCNc1nc(N)ncc1OCCCC(=O)OC(C)C [Compound 221]	0.859
CCCC[C@@H](CCO)Nc1nc(N)ncc1OCc1cc2ccccc2cn1 [Compound 223]	1.400
C=CC[C@H](CCCC)Nc1nc(N)ncc1OC [Compound 292]	3.082

system: human TLR8 mutant sequence comprising a deletion in the second leucine-rich repeat; assay: TLR8 cellular NFκB-luc reporter assay, mutant TLR8 with deletion in the second leucine-rich repeat; format: cell-based; set-up: unit not given here; settings: lowest effective concentration
Method: as §2, §3

Structure (SMILES)	TLR8-dIRR2_LEC
CCCCNc1nc(N)ncc1OCc1ncccc1F [Compound 213]	0.032
CCC[C@@H](CO)Nc1nc(N)ncc1OCc1nccc(OC)c1OC [Compound 214]	0.027
CCC[C@@H](CO)Nc1nc(N)ncc1OCc1cn2ccccc2n1 [Compound 215]	0.029
CCCC[C@@H](CO)Nc1nc(N)ncc1OCc1nccc2ccccc12 [Compound 216]	0.002
CCCC[C@@H](CO)Nc1nc(N)ncc1OCc1nccc(OC)c1OC [Compound 217]	0.007
CCCC[C@@H](CO)Nc1nc(N)ncc1OCc1cn2ccccc2n1 [Compound 218]	0.032
CCC[C@@H](C)Nc1nc(N)ncc1OCc1nccc2ccccc12 [Compound 219]	0.029
CCCCNc1nc(N)ncc1OCCCC(=O)OC [Compound 220]	1.720
CCCCNc1nc(N)ncc1OCCCC(=O)OC(C)C [Compound 221]	0.496
CCCC[C@@H](CCO)Nc1nc(N)ncc1OCc1cc2ccccc2cn1 [Compound 223]	0.033

system: HCV replicon in Huh-7 luc/neo cells; assay: Suppression of HCV replicon replication by conditioned media from compound-treated PBMC; format: cell-based, HCV type 1 b; settings: Hepatitis C virus; conditioned media from compound-treated PBMC on Huh-7 luc/neo replicon cells (compounds 74 onward); read-out: PBMC HUH-7 EC50
How it was run: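 Human PBMC (≥2 donors, RPMI + 10% human AB serum, 2×10^5 cells/well) incubated overnight with compounds; supernatant transferred onto Huh-7 luc/neo HCV 1b replicon cells. After 24 h, replication read as luciferase activity. Recombinant interferon α-2a served as standard.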

Structure (SMILES)	EC50
CCC[C@H](CCO)Nc1nc(N)ncc1OCc1ccccc1 [Compound 190]	3230 nM
CCC[C@@H](CO)Nc1nc(N)ncc1OCc1ccc2ccccc2n1 [Compound 192]	44 nM
CCCC[C@@H](CO)Nc1nc(N)ncc1OCc1ncc(C)c(OC)c1C [Compound 194]	19 nM
CCC[C@@H](CO)Nc1nc(N)ncc1OCc1nccc2ccccc12 [Compound 195]	3 nM

biological target: T2, human TLR7 (wild type sequence) (Homo sapiens, UniProt Q9NYK1); assay: TLR7 cellular NFκB-luc reporter assay, wild type TLR7; format: cell-based; set-up: unit not given here; settings: lowest effective concentration, wild type TLR7
T2 construct: expressed in transfected cells; host or cells: HEK293
T2 sequence (Q9NYK1 27-1049): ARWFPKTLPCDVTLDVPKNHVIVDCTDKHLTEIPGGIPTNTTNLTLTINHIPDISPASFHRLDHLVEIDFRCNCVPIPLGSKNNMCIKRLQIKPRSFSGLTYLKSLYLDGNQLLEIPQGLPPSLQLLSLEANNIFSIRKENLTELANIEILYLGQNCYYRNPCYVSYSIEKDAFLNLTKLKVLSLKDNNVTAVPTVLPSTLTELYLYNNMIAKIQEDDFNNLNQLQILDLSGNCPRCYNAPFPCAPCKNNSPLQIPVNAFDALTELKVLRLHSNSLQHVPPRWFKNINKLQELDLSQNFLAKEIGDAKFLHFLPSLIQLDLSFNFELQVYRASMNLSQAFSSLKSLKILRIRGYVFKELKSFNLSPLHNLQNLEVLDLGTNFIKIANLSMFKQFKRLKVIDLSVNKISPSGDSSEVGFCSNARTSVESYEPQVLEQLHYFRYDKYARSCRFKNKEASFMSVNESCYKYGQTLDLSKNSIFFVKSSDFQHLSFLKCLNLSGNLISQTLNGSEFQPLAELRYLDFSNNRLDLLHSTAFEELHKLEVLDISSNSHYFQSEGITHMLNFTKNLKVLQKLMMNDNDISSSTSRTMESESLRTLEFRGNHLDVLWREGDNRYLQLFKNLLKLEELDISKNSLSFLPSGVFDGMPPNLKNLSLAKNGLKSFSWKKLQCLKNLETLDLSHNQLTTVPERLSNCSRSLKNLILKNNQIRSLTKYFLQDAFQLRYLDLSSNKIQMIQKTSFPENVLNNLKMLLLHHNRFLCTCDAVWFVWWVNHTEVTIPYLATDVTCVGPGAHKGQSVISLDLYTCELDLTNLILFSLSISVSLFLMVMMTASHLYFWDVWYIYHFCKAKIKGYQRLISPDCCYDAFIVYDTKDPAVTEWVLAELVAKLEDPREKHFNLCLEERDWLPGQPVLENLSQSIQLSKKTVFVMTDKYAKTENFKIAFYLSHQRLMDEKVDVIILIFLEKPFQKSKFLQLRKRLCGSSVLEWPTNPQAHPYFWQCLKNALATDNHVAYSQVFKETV
How it was run: as §1

Structure (SMILES)	TLR7-wt_LEC
CCCC[C@@H](CCO)Nc1nc(N)ncc1OCc1nccc2ccccc12 [Compound 208]	0.001
CCCCNc1nc(N)ncc1OCc1ncccc1F [Compound 213]	0.225
CCC[C@@H](CO)Nc1nc(N)ncc1OCc1nccc(OC)c1OC [Compound 214]	0.134
CCC[C@@H](CO)Nc1nc(N)ncc1OCc1cn2ccccc2n1 [Compound 215]	0.171
CCCC[C@@H](CO)Nc1nc(N)ncc1OCc1nccc2ccccc12 [Compound 216]	0.008
CCCC[C@@H](CO)Nc1nc(N)ncc1OCc1nccc(OC)c1OC [Compound 217]	0.106
CCCC[C@@H](CO)Nc1nc(N)ncc1OCc1cn2ccccc2n1 [Compound 218]	0.154
CCC[C@@H](C)Nc1nc(N)ncc1OCc1nccc2ccccc12 [Compound 219]	0.125
CCCCNc1nc(N)ncc1OCCCC(=O)OC [Compound 220]	1.940
CCCCNc1nc(N)ncc1OCCCC(=O)OC(C)C [Compound 221]	0.654
CCCC[C@@H](CCO)Nc1nc(N)ncc1OCc1cc2ccccc2cn1 [Compound 223]	0.100
C=CC[C@H](CCCC)Nc1nc(N)ncc1OC [Compound 292]	0.913

same assay, conditions: lowest effective concentration, wild type TLR7 (compounds 74 onward)

Structure (SMILES)	TLR 7 wt LEC
CCC[C@H](CCO)Nc1nc(N)ncc1OCc1ccccc1 [Compound 190]	8.620
CCC[C@@H](CO)Nc1nc(N)ncc1OCc1ccc2ccccc2n1 [Compound 192]	0.080
CCCC[C@@H](CO)Nc1nc(N)ncc1OCc1ncc(C)c(OC)c1C [Compound 194]	0.031
CCC[C@@H](CO)Nc1nc(N)ncc1OCc1nccc2ccccc12 [Compound 195]	0.003
